In patent US5525329A, “Inhibition of phosphodiesterase in olfactory mucosa” (priority 1995, dated 1996):
“Also recorded” adds a separate entry of the source. Where two headings read alike, the source gives them in different places. Blank lines part the entries; values can stand above or below the molecule they belong to.

Assays:
[1] = system: phosphodiesterase, olfactory mucosa; assay: PDE activity in homogenates of olfactory mucosa (turbinates); format: biochemical, rat; details: for reduction of PDE activity / inhibition of cAMP hydrolysis / inhibition of cGMP hydrolysis: 10 μM drug; for inhibition of cAMP hydrolysis: 1 μM cAMP, no added Ca^2+
Procedure: (§1) Assays were performed with 100 μM Ca^2+ (hatched bars) or with 100 μM EGTA (solid bars).
(§2) Enzymol. […] Tissue was warmed to 37° C. and 100 μl aliquots containing 1-2 […] protein added to initiate the assay which was conducted for 20 minutes at 37° C. […] For experiments at 100 μM free Ca^2+, the reaction mix included 0.2 mM CaCl2 and 50 nM calmodulin (Sigma) where appropriate. Low Ca^2+ conditions were achieved by addition of 2.0 mM EGTA. Ca^2+ levels were measured against standards using a conductivity meter and Ca^2+ electrode (Biomedical Instrumentation Group, Philadelphia, Pa.). Following incubation, reactions were stopped by boiling for 1.5 minutes and cooling on ice, whereupon 100 μl aliquots of 5'-nucleotidase (10 units/ml in 0.1M Tris pH 8.1) were added and samples incubated for 30 minutes at 37° C. Incubation mixtures were applied to QAE-Sephadex columns pre-equilibrated with 30 mM ammonium formate, with flow through and eluate from two 1 ml washes collected in plastic scintillation vials.
Subcellular fractions were obtained as described below. Rats were anesthetized with carbon dioxide, decapitated and tissue dissected. Nasal turbinates were dissected intact and consisted of the entire olfactory mucosa, including endothelial tissue, olfactory epithelium, and overlying mucous. […] For fractionation, tissue was first centrifuged at 500×g for 5 minutes in a Sorvall RC 2B superspeed refrigerated centrifuge (DuPont, Wilmington, Del.). The crude particulate (P1) pellet was discarded and the supernatant (S1) centrifuged 20 minutes at 28,000×g. The resultant pellet (P2) was washed in BHB, centrifuged and resuspended in 5 ml BHB, and designated the membrane fraction. The supernatant (S2) was centrifuged 50 minutes at 230,000×g in Beckman L8-M ultracentrifuge (Fullerton, Calif.). The pellet (P3) was washed in BHB, recentrifuged in an ultracentrifuge, and resuspended in 2 ml BHB as the microsomal fraction. The supernatant (S3) was saved as the soluble fraction and visually inspected for absence of cloudiness or lipid droplets. In all cases, protein was assayed by the Bradford method using Coomassie Protein Assay Reagent (Pierce, Rockford, Ill.) and BSA as standard.

[2] = target: T1, phosphodiesterase, olfactory cilia (Rattus norvegicus, UniProt Q63421); assay: PDE activity in olfactory cilia; format: biochemical
T1 construct: Tissue was prepared either as cilia, using the method of Sklar et al., (1986); from tissue; host or cells: olfactory cilia preparation
Procedure: as §1
(§3) Activity is graphed as a function of total cyclic nucleotides present using olfactory cilia, or mucosa with 1 μM cGMP.
(§4) FIG 4B is a graph of activity, 1 μM cGMP used as substrate: 100 μM EGTA (open circles); 100 μM Ca^2+ (filled circles); 100 μM Ca^2+ in the presence of 200 μM W-7 (filled squares).
as §2

cGMP-inhibited PDE = details: reported in literature; cited from earlier work
[3] = system: high affinity cAMP-selective form of PDE; details: reported in literature, cited from earlier work
[4] = system: phosphodiesterase, olfactory cilia; assay: PDE activity in olfactory cilia; format: biochemical, rat
Procedure: as §1, §3, §4, §2

[5] = target: T1, phosphodiesterase, olfactory cilia; assay: PDE activity in olfactory cilia; format: biochemical; remark: listed apart in the source
[6] = olfactory mucosa, 1 μM cGMP, 100 μM EGTA
[7] = 10 μM drug, presence or absence of Ca^2+

T1 sequence (Q63421 whole entry): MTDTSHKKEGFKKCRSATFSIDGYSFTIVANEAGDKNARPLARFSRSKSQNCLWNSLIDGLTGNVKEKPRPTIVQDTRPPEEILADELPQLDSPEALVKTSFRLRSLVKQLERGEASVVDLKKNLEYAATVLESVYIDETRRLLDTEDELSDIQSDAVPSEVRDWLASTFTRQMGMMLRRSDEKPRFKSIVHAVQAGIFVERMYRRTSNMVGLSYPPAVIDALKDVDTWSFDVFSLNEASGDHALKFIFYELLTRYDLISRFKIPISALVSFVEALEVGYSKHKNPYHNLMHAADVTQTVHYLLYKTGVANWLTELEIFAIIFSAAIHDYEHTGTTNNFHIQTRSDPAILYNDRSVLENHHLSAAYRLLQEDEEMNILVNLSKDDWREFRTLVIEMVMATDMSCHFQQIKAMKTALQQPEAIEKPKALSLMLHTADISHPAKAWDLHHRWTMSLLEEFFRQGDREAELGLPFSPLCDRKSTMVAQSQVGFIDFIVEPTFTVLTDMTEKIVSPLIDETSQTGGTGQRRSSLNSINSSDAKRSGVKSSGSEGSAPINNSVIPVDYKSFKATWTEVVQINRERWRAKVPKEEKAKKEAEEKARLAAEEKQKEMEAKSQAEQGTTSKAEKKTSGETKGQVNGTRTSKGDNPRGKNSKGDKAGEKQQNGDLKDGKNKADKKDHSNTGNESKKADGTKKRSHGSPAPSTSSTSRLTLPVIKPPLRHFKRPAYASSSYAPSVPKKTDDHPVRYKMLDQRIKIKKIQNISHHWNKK

reduction of PDE activity ([1]; 100 μM Ca^2+): about 15%
reduction of PDE activity ([1]; 100 μM EGTA): about 30%
inhibition at 10 µM ([2]; 10 μM drug, regardless of assay conditions, read-out: inhibition of PDE in cilia): < 10%
Molecule: CC1CC(=O)NN=C1c1ccc(-n2ccnc2)cc1 (stereo not drawn) [CI 930]
selectivity for cGMP-inhibited PDE (cGMP-inhibited PDE): selective for cGMP-inhibited PDE

Molecule: CCCCOc1cc(CC2CNC(=O)N2)ccc1OC (stereo not drawn) [Ro20-1724]
selective inhibition of the high affinity cAMP-selective form of PDE [3]: selectively inhibit the high affinity cAMP-selective form of PDE
selective inhibition of the high affinity cAMP-selective form of PDE ([3]; listed as Ro 20-1724): selective inhibitor of calcium/calmodulin-independent, high affinity PDE
inhibition of olfactory PDE in the presence of calcium ([1]; olfactory PDE, presence of calcium): about 15%
inhibition of cAMP hydrolysis ([1]; olfactory mucosa, 100 μM EGTA): 66%
inhibition of cGMP hydrolysis [1, 6]: Neither 10 μM rolipram nor 10 μM Ro20-1724 inhibit cGMP hydrolysis
inhibition of PDE in cilia [2, 7]: neither rolipram (10 μM) nor Ro20-1724 (10 μM) inhibit PDE

Molecule: NCCCCCCNS(=O)(=O)c1cccc2c(Cl)cccc12 [W-7]
reduction of stimulation by calmodulin ([4]; cilia, 100 μM W-7 (cAMP) or 200 μM W-7 (cGMP), 100 μM Ca^2+): substantially reduces stimulation by calmodulin

maximal enhancement of cAMP hydrolysis by cGMP ([1]; olfactory mucosa, 1 μM cGMP, 10 μM cAMP, 100 μM EGTA): 20-30%
effect of cGMP on cAMP hydrolysis when Ca^2+ and calmodulin are added ([4]; cilia and olfactory mucosa, Ca^2+ and calmodulin added): diminishes markedly
maximal enhancement of cAMP hydrolysis by cGMP ([4]; cilia, 1 μM cGMP, 10 μM cAMP, 100 μM EGTA): 20-30%
Molecule: Nc1nc2c(ncn2[C@@H]2O[C@@H]3COP(=O)(O)O[C@H]3[C@H]2O)c(=O)[nH]1 [cGMP]

inhibition of cAMP hydrolysis ([1]; olfactory mucosa, 100 μM EGTA): 64%
inhibition of cGMP hydrolysis [1, 6]: about 20%
inhibition at 10 µM ([2]; 10 μM drug, 1 μM cGMP, presence or absence of Ca^2+, read-out: inhibition of ciliary cGMP PDE): 15 to 20%
inhibition at 10 µM ([5]; read-out: inhibition of ciliary cAMP PDE): 15 to 20%
Molecule: CCCCn1c(=O)c2c(ncn2CC(C)=O)n(CCCC)c1=O [denbufylline]
selective inhibition of the high affinity cAMP-selective form of PDE [3]: selectively inhibit the high affinity cAMP-selective form of PDE

Molecule: Cc1[nH]c(=O)c(C#N)cc1-c1ccncc1 [milrinone]
reduction of PDE activity ([1]; 100 μM Ca^2+): about 15%
reduction of PDE activity ([1]; 100 μM EGTA): about 30%
inhibition at 10 µM ([2]; read-out: inhibition of PDE in cilia): < 10%
selectivity for cGMP-inhibited PDE (cGMP-inhibited PDE): selective for cGMP-inhibited PDE

inhibition of cAMP hydrolysis ([1]; olfactory mucosa, 100 μM EGTA): 49%
Molecule: COc1ccc(C2CNC(=O)C2)cc1OC1CCCC1 (stereo not drawn) [rolipram]
selective inhibition of the high affinity cAMP-selective form of PDE [3]: selectively inhibited; also recorded: selectively inhibit the high affinity cAMP-selective form of PDE
inhibition of cGMP hydrolysis [1, 6]: Neither 10 μM rolipram nor 10 μM Ro20-1724 inhibit cGMP hydrolysis
inhibition of PDE in cilia [2, 7]: neither rolipram (10 μM) nor Ro20-1724 (10 μM) inhibit PDE

EC50 ([2]; cilia, 1 μM cGMP, read-out: half maximal stimulation of PDE activity by calmodulin): 10 nM
EC50 ([5]; cilia, 1 μM cAMP, read-out: half maximal stimulation of PDE activity by calmodulin): 10 nM
Molecule: calmodulin
effect of calmodulin on stimulation of enzyme activity by Ca^2+ ([1]; mucosal homogenates, 1 μM cAMP or cGMP): further enhances the stimulation of enzyme activity by Ca^2+
